Assay results taken from BindingDB's records for PubMed 31865013 (n/a, 2020).

Target: T1, Histone deacetylase 6 (Homo sapiens, UniProt Q9UBN7)
T1 sequence (Q9UBN7 whole entry): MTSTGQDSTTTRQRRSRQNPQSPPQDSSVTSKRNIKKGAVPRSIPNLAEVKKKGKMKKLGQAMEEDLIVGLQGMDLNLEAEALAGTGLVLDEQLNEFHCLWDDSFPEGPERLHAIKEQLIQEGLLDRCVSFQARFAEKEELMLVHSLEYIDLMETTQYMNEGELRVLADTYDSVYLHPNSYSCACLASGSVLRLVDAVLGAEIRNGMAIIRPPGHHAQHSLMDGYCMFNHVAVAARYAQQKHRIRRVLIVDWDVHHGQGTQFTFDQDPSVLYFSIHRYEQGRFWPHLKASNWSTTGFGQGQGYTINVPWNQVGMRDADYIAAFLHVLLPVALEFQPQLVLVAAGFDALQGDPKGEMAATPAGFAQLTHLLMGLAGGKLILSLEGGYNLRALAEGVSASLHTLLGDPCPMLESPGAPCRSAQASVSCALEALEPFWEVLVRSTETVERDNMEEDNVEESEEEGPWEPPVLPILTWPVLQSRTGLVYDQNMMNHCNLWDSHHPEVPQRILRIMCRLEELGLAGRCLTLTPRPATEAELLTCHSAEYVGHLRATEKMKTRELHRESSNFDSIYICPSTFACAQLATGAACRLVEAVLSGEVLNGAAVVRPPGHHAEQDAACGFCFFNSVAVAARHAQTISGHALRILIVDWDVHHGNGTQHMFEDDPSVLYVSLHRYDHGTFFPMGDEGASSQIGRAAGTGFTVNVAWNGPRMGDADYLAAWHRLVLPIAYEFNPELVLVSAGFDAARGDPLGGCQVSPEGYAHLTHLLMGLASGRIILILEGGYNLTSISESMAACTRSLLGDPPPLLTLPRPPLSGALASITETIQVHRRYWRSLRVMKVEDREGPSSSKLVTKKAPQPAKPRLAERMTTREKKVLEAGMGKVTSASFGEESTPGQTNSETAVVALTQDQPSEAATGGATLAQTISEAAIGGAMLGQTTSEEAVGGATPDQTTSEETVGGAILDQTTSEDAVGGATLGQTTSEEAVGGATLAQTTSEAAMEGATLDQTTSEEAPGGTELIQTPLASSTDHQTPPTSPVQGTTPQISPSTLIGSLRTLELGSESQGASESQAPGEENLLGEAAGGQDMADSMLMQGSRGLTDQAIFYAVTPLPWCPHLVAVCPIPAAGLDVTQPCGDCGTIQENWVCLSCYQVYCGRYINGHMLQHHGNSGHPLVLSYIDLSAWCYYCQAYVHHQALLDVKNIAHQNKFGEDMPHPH
Experiment: Inhibition of HDAC6 (unknown origin) using Fluor de lys as substrate by fluorescence based analysis

| IC50 [nM] | SMILES |
| --- | --- |
| 18 | CCc1cc(Cc2cnc(N)nc2N)cc(CC)c1N |
| 16 | COCCOc1cc(Cc2cnc(N)nc2N)cc2c1NCCC2 |
| 17 | Nc1ncc(Cc2ccc3c(c2)CCCN3)c(N)n1 |
| 11 | CCCCCCCCCCCCOc1c(CC)cc(Cc2cnc(N)nc2N)cc1CC |
